Measured values: the supplement of paper PMC4862054

How the values were obtained:
Settings in all cases: incubation time: 72 h
[1] = system: MDA-MB-453; experiment: normalised viability (% of control), CellTiter-Blue; higher = more viable cells (100 = DMSO, 0 = benzethonium chloride kill control)
How it was run: (§1)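 The reported quantity is normalised viability at a single listed concentration of the series. Compound in 5 µl medium was pre-dispensed into 384-well plates and 20 µl of breast cancer cell suspension was added for 72 h. A 2 h, 37 °C CellTiter-Blue step (2.5 µl) preceded fluorescence reading at 560/590 nm, and plates were normalised to vehicle (100) and a positive kill control (0).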

[2] = system: MDA-MB-468; experiment: as above
How it was run: as §1

[3] = system: CAL-120; experiment: as above
How it was run: as §1

[4] = system: BT-549; experiment: as above
How it was run: as §1

[5] = system: HCC1599; experiment: as above
How it was run: as §1

[6] = system: MDA-MB-231; experiment: as above
How it was run: as §1

[7] = system: CAL-51; experiment: as above
How it was run: as §1

[8] = system: HDQ-P1; experiment: as above
How it was run: as §1

[9] = system: CAL-85-1; experiment: as above
How it was run: as §1

[10] = system: HCC1143; experiment: as above
How it was run: as §1

[11] = system: SK-BR-3; experiment: as above
How it was run: as §1

[12] = system: DU-4475; experiment: as above
How it was run: as §1

[13] = system: MDA-MB-436; experiment: as above
How it was run: as §1

[14] = system: HCC1937; experiment: as above
How it was run: as §1

[15] = system: Hs578T; experiment: as above
How it was run: as §1

[16] = system: BT-474; experiment: as above
How it was run: as §1

[17] = system: MFM-223; experiment: as above
How it was run: as §1

[18] = system: CAL-148; experiment: as above
How it was run: as §1

[19] = system: MDA-MB-453; experiment: normalised response (% of control), CellTiter-Glo; higher = more viable cells (100 = DMSO, 0 = benzethonium chloride kill control)
How it was run: (§2)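 Every value is a normalised signal taken at one concentration of a dilution series. Compound was placed in 384-well plates at 5 concentrations in 10-fold steps over a compound-specific 10,000-fold range, and 20 µl of breast cancer cell suspension was seeded onto it. After 72 h, CellTox Green fluorescence (485/520 nm) was measured first and CellTiter-Glo luminescence second, following 10 min at room temperature. Each plate was scaled to 0.1 % DMSO (100) and a positive kill control (0).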

[20] = system: MDA-MB-468; experiment: as above
How it was run: as §2

[21] = system: CAL-120; experiment: as above
How it was run: as §2

[22] = system: MCF-10A; experiment: as above
How it was run: as §2

[23] = system: BT-549; experiment: as above
How it was run: as §2

[24] = system: HCC1599; experiment: as above
How it was run: as §2

[25] = system: MDA-MB-231; experiment: as above
How it was run: as §2

[26] = system: CAL-51; experiment: as above
How it was run: as §2

[27] = system: HDQ-P1; experiment: as above
How it was run: as §2

[28] = system: CAL-85-1; experiment: as above
How it was run: as §2

[29] = system: HCC1143; experiment: as above
How it was run: as §2

[30] = system: SK-BR-3; experiment: as above
How it was run: as §2

[31] = system: DU-4475; experiment: as above
How it was run: as §2

[32] = system: MDA-MB-436; experiment: as above
How it was run: as §2

[33] = system: HCC1937; experiment: as above
How it was run: as §2

[34] = system: Hs578T; experiment: as above
How it was run: as §2

[35] = system: BT-474; experiment: as above
How it was run: as §2

[36] = system: MFM-223; experiment: as above
How it was run: as §2

[37] = system: CAL-148; experiment: as above
How it was run: as §2

Structure (SMILES) | normalised viability [1] [%] | normalised viability [2] [%] | normalised viability [3] [%] | normalised viability [4] [%] | normalised viability [5] [%] | normalised viability [6] [%] | normalised viability [7] [%] | normalised viability [8] [%] | normalised viability [9] [%] | normalised viability [10] [%] | normalised viability [11] [%] | normalised viability [12] [%] | normalised viability [13] [%] | normalised viability [14] [%] | normalised viability [15] [%] | normalised viability [16] [%] | normalised viability [17] [%] | normalised viability [18] [%] | normalised response [19] [%] | normalised response [20] [%] | normalised response [21] [%] | normalised response [22] [%] | normalised response [23] [%] | normalised response [24] [%] | normalised response [25] [%] | normalised response [26] [%] | normalised response [27] [%] | normalised response [28] [%] | normalised response [29] [%] | normalised response [30] [%] | normalised response [31] [%] | normalised response [32] [%] | normalised response [33] [%] | normalised response [34] [%] | normalised response [35] [%] | normalised response [36] [%] | normalised response [37] [%]
COc1cc2nccc(Oc3ccc(NC(=O)C4(C(=O)Nc5ccc(F)cc5)CC4)cc3)c2cc1OC [Cabozantinib] (0.1 nM) | 99.4 | 105 | 83.8 | 115 | 77.6 | 115 | 103 | 96.1 | 90.2 | 95.4 | 101 | 101 | 103 | 94.8 | 97.4 | 100 | 93 | 107 | 116 | 103 | 103 | 92.2 | 102 | 113 | 104 | 87.8 | 95.2 | 97.1 | 96.2 | 97.5 | 95.2 | 83.3 | 100 | 100 | 101 | 99.5 | 99.7
CN[C@@H]1C[C@H]2O[C@@](C)([C@@H]1OC)n1c3ccccc3c3c4c(c5c6ccccc6n2c5c31)C(=O)N[C@H]4O [UCN-01] (1 nM) | 99.3 | 99.8 | 82.9 | 92 | 118 | 92 | 98.9 | 69.6 | 87.8 | 95.7 | 104 | 128 | 111 | 82.1 | 106 | 99.2 | 108 | 102 | 99.8 | 103 | 91.5 | 102 | 95.5 | 100 | 103 | 78.4 | 99 | 102 | 98.7 | 109 | 109 | 100 | 90.9 | 98 | 97.5 | 102 | 105
C#Cc1cccc(Nc2ncnc3cc(OCCOC)c(OCCOC)cc23)c1 [Erlotinib] (1 nM) | 99.8 | 107 | 85 | 111 | 80.1 | 107 | 98.2 | 102 | 95.3 | 86.6 | 108 | 89 | 99.6 | 102 | 84 | 95 | 98.8 | 97.8 | 116 | 93 | 96.1 | 115 | 106 | 97.1 | 101 | 107 | 100 | 102 | 101 | 100 | 106 | 131 | 104 | 106 | 101 | 105 | 103
O=C1CCC(N2C(=O)c3ccccc3C2=O)C(=O)N1 (stereo not drawn) [Thalidomide] (1 nM) | 108 | 105 | 115 | 95.2 | 104 | 88.7 | 86.2 | 110 | 109 | 100 | 102 | 101 | 97 | 90 | 106 | 76.9 | 96.1 | 122 | 96.6 | 98.5 | 99.3 | 104 | 104 | 111 | 104 | 93.9 | 101 | 100 | 95.5 | 96.8 | 95.1 | 101 | 97.7 | 98.2 | 99.2 | 98 | 96.4
